Laboratory results from patent US20220273813A1, “PHOTOSENSITIZER-CONJUGATED ANTIMICROBIAL CELLULOSE NANOCRYSTALS AND METHODS OF SYNTHESIZING AND USING SAME” (HNU MATERIALS INC., priority 2019, published 2022).

Tests used:
E. coli (ATCC25922) = assay: Photobactericidal activity, CFU count, E. coli; settings: 20 min ambient light (LED); concentration matched to absorption of 8 mg/L CNC-AA
Description: In the experimental set-up, the viability of bacteria as a response to intensity of white light exposure and concentration of disinfectant was monitored. This was carried out by calculating the number of bacterial colonies present in solution before and after exposure.
According to the experimental protocol, a suspension of cells (2.6×10^8 cells/ml ±0.5 log) was treated with either AA, CNC or CNC+AA or CNC-AA or PBS (untreated control) at different concentration (FIGS. 7-9). For each set of conditions, the initial culture was equally divided into two. One part was light treated while the other was kept in the dark. After different time periods (FIGS. 7-9), bactericidal activity was quantified by counting colony forming units (CFU) on agar plates. […] Comparison of the number of CFUs in the treated samples (AA, CNC, CNC+AA and CNC-AA) to untreated (PBS) placed under light, enabled the inventors to quantify the specific photo-bactericidal activity of the test agents. Killing effect was calculated using the following expression (equation 2).
Killing=Log 10(#CFUUntreated)−Log 10(CFUtreated) (2)

P. aeruginosa biofilms = tested on: P. aeruginosa biofilms; parameters: dose or concentration left out as unconfirmed; settings: combined with laser irradiation at specific wavelengths; cited from earlier work

| Structure (SMILES) | toxicity against E. coli (E. coli (ATCC25922)) | concentration necessary to eradicate P. aeruginosa biofilms (P. aeruginosa biofilms) [% wt/wt] |
| --- | --- | --- |
| CN(C)c1ccc2nc3ccc(N)cc3[s+]c2c1.[Cl-] [AA, azure A] | significantly reduced compared to CNC-AA | – |
| CN(C)c1ccc2nc3ccc(=[N+](C)C)cc-3sc2c1 [methylene blue] | – | 0.01 |
